The results in this text go back to patent US20240158446A1, “CYCLIC COMPOUND HAVING SELECTIVE INHIBITORY ACTION ON KRAS OVER HRAS AND NRAS” (CHUGAI SEIYAKU KABUSHIKI KAISHA, priority 2021, published 2024).

pIC50, pKd: −log10 of the molar value.

Assay [1] concerns the target GDP-bound NRAS wild-type protein (Homo sapiens, UniProt P01111). Description: Binding to NRAS by surface plasmon resonance (SPR), Single Cycle Kinetics. Particulars: SPR KD ratio NRAS/KRAS, class symbols. (In general: SPR reads the build-up and loss of mass on a sensor chip optically.)
The subject of assay [2] is human lung cancer strain NCI-H441.
Assay [3] deals with GDP-bound KRAS wild-type protein (Homo sapiens, UniProt P01116). Description: Binding to KRAS by surface plasmon resonance (SPR), Single Cycle Kinetics. The following applies: SPR Single Cycle Kinetics, GDP-bound KRAS wild-type protein, 1:1 binding model; read-out: KRAS KD.
In assay [4] the target is GDP-bound HRAS wild-type protein (Homo sapiens, UniProt P01112). As to the kind of experiment: Binding to HRAS by surface plasmon resonance (SPR), Single Cycle Kinetics. The following applies: SPR KD ratio HRAS/KRAS, class symbols.
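Wherever pIC50 is given: cell proliferation inhibition after four days measured by CellTiter-Glo.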

GDP-bound NRAS wild-type protein, sequence (P01111 whole entry): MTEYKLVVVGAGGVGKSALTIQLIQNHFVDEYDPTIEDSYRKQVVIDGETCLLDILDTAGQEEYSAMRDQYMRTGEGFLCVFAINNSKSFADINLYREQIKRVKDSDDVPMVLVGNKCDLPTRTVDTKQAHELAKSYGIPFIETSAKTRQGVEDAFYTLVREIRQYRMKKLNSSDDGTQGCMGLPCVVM
GDP-bound KRAS wild-type protein, sequence (P01116 whole entry): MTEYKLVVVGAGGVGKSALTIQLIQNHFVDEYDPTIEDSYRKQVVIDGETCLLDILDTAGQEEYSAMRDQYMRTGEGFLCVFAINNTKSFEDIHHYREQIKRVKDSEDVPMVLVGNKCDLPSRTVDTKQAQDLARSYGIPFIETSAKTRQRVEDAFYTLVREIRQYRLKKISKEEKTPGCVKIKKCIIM
GDP-bound HRAS wild-type protein, sequence (P01112 whole entry): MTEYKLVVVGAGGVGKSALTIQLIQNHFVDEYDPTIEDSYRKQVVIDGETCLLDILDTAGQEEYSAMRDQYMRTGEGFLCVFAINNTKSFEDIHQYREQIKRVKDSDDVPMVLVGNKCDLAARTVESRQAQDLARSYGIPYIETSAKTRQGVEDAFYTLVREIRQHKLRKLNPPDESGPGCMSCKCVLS

`CCC[C@H]1C(=O)N[C@@H]([C@@H](C)CC)C(=O)N(C2CC2)CC(=O)N(C)[C@H]2C/C=C\CCN(C2=O)[C@@H](CC2CCC(F)(F)CC2)C(=O)N(C)CC(=O)N[C@@H](CCc2ccc(Cl)c(Cl)c2)C(=O)N2C[C@H](OCC)C[C@H]2C(=O)NC2(CC(C)(C)C2)C(=O)N(C)[C@@H](C2CCCC2)C(=O)N(C)[C@H](C(=O)N(C)C)CC(=O)N1C` [PP2567]: in assay [1], the “NRAS/KRAS (ratio of KD value with respect to GDP-bound NRAS wild-type protein to KD value with respect to KRAS)” value is “A (a compound having 10 or more and less than 20 is denoted as A)”. For the same compound, the pIC50 in assay [2] was 6.99. Besides, the pKd in assay [3] is 8.72. Further, the “HRAS/KRAS (ratio of KD value with respect to GDP-bound HRAS wild-type protein to KD value with respect to KRAS)” value in assay [4] is “A (a compound having 10 or more and less than 20 is denoted as A)”.
Take `CCO[C@@H]1C[C@H]2C(=O)NC3(CC(C)(C)C3)C(=O)N(C)[C@@H](C(CC)CC)C(=O)N(C)[C@H](C(=O)N(C)C)CC(=O)N(C)[C@@H](COC)C(=O)N[C@@H]([C@@H](C)CC)C(=O)N(C3CC3)CC(=O)N(C)[C@H]3C/C=C\CCN(C3=O)[C@@H](CC3CCC(F)(F)CC3)C(=O)N(C)CC(=O)N[C@@H](CCc3cc(F)c(C(F)(F)F)c(F)c3)C(=O)N2C1` [PP2568]: the “NRAS/KRAS (ratio of KD value with respect to GDP-bound NRAS wild-type protein to KD value with respect to KRAS)” value in assay [1] is “A (a compound having 10 or more and less than 20 is denoted as A)”. This compound also gave a negative-log IC50 (pIC50) in assay [2] of 7.63. In assay [3], the pKd is 8.92. For the same compound, in assay [4], the “HRAS/KRAS (ratio of KD value with respect to GDP-bound HRAS wild-type protein to KD value with respect to KRAS)” value was “B (a compound having 3 or more and less than 10 is denoted as B)”.
`CCO[C@@H]1C[C@H]2C(=O)NC3(CC(C)(C)C3)C(=O)N(C)[C@@H](C(CC)CC)C(=O)N(C)[C@H](C(=O)N(C)C)CC(=O)N(C)[C@@H](COC)C(=O)N[C@@H]([C@@H](C)CC)C(=O)N(C3CC3)CC(=O)N(C)[C@H]3C/C=C\CCN(C3=O)[C@@H](CC3CCC(F)(F)CC3)C(=O)N(C)CC(=O)N[C@@H](CCc3ccc(Cl)c(Cl)c3)C(=O)N2C1` [PP2569]: in assay [1], the “NRAS/KRAS (ratio of KD value with respect to GDP-bound NRAS wild-type protein to KD value with respect to KRAS)” value was “AA (a compound having 20 or more is denoted as AA)”. Moreover, the pIC50 in assay [2] is 6.73. Further, the negative-log Kd (pKd) in assay [3] was 8.55. For the same compound, the “HRAS/KRAS (ratio of KD value with respect to GDP-bound HRAS wild-type protein to KD value with respect to KRAS)” value in assay [4] was “A (a compound having 10 or more and less than 20 is denoted as A)”.
As for `CCC[C@H]1C(=O)N[C@@H]([C@@H](C)CC)C(=O)N(C2CC2)CC(=O)N(C)[C@H]2C/C=C\CCN(C2=O)[C@@H](Cc2ccc(C)cc2)C(=O)N(C)CC(=O)N[C@@H](CCc2cc(F)c(C(F)(F)F)c(F)c2)C(=O)N2C[C@H](OC(C)C)C[C@H]2C(=O)NC2(CC(C)(C)C2)C(=O)N(C)[C@@H](C2CCCC2)C(=O)N(C)[C@H](C(=O)N(C)C)CC(=O)N1C` [PP2570], the “NRAS/KRAS (ratio of KD value with respect to GDP-bound NRAS wild-type protein to KD value with respect to KRAS)” value in assay [1] is “A (a compound having 10 or more and less than 20 is denoted as A)”. The compound also had a pIC50 in assay [2] of 8.05. Also, the pKd in assay [3] was 9.41. For the same compound, the “HRAS/KRAS (ratio of KD value with respect to GDP-bound HRAS wild-type protein to KD value with respect to KRAS)” value in assay [4] was “A (a compound having 10 or more and less than 20 is denoted as A)”.
For `CCC[C@H]1C(=O)N[C@@H]([C@@H](C)CC)C(=O)N(C2CC2)CC(=O)N(C)[C@H]2C/C=C\CCN(C2=O)[C@@H](Cc2ccc(C)cc2)C(=O)N(C)CC(=O)N[C@@H](CCc2ccc(Cl)c(Cl)c2)C(=O)N2C[C@H](OC(C)C)C[C@H]2C(=O)NC2(CC(C)(C)C2)C(=O)N(C)[C@@H](C2CCCC2)C(=O)N(C)[C@H](C(=O)N(C)C)CC(=O)N1C` [PP2571], the “NRAS/KRAS (ratio of KD value with respect to GDP-bound NRAS wild-type protein to KD value with respect to KRAS)” value in assay [1] was “A (a compound having 10 or more and less than 20 is denoted as A)”. In assay [2], this compound showed a pIC50 of 7.12. Further, in assay [3], the pKd was 9.00. Also, the “HRAS/KRAS (ratio of KD value with respect to GDP-bound HRAS wild-type protein to KD value with respect to KRAS)” value in assay [4] is “A (a compound having 10 or more and less than 20 is denoted as A)”.

In general, pIC50 refers to the negative decadic logarithm of the IC50, by convention in mol/L. A higher pIC50 goes with a low IC50. As a reminder, the pKd is −log10 of the Kd, conventionally taken in molar units.
